In EP0541662B1, “SYNTHETIC PEPTIDES THAT ANTAGONIZE NEUROKININ A, THEIR SALTS AND THEIR MANUFACTURING PROCESSES” (A. MENARINI INDUSTRIE FARMACEUTICHE RIUNITE S.R.L., priority 1990, dated 1992):
Square brackets hold non-standard residues; d marks the D form. Peptide text beside a SMILES is read from it. Nle = CCCC[C@H](N)C(=O)O; Orn = NCCC[C@H](N)C(=O)O

Target: T1, NK-2 receptor (Oryctolagus cuniculus, UniProt P79218)
T1 construct: This preparation is isolated rabbit pulmonary artery, in which tachykinins produce dose-related contraction; from tissue; host or cells: isolated rabbit pulmonary artery
T1 sequence (P79218 1-384): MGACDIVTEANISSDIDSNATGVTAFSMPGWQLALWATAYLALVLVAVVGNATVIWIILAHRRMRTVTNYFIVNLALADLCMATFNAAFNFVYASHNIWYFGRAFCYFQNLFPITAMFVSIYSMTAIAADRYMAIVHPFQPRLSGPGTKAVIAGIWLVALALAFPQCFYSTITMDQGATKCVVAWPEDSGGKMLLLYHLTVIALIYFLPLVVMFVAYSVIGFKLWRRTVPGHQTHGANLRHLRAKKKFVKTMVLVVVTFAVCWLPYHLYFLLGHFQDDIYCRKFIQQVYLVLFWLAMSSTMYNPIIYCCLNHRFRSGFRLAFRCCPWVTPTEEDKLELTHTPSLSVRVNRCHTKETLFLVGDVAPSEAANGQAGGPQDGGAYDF
Assay: Antagonism of NKA-induced contraction in isolated rabbit pulmonary artery
Type: cell-based
Conditions: inhibition of the response to NKA (3 nM), 10⁻⁶M concentration of each compound
Procedure: The ability of the peptides described in the present invention to interact with the neurokinin A receptor as agonists or antagonists was evaluated in an in-vitro study using a preparation in which the biological response produced by tachykinins and related peptides is determined exclusively from the neurokinin A receptor (NK-2 receptor). This preparation is isolated rabbit pulmonary artery, in which tachykinins produce dose-related contraction (Rovero et al., Neuropeptides, 1989, 13: 263-270). The activity of the peptides in this preparation was determined using a concentration of NKA (3 nM) that produces a response equivalent to 45% of the maximum. The peptides that are the subject of the present application were added to the preparation in increasing concentrations and their activity evaluated in terms of inhibition of the response to NKA.
Antagonist biological activity on the NK-2 receptor in isolated rabbit pulmonary artery of the peptides described.

inhibition [%]	SMILES
95	CC(C)[C@@H]1NC(=O)[C@@H](Cc2c[nH]c3ccccc23)NC(=O)[C@H](Cc2ccc(O)cc2)NC(=O)[C@H](CC(=O)O)NC(=O)[C@H](CCCNC(=N)N)NC(=O)[C@@H](Cc2c[nH]c3ccccc23)NC(=O)[C@@H](Cc2c[nH]c3ccccc23)NC1=O [Cyclo[AspTyrDTrpValDTrpDTrpArg], cyclo[AspTyrDTrpValDTrpDTrpArg]] (cyclo(DY[dW]V[dW][dW]R))
95	CC(C)[C@@H]1NC(=O)[C@@H](Cc2c[nH]c3ccccc23)NC(=O)[C@H](Cc2ccc(O)cc2)NC(=O)[C@H](CC(=O)O)NC(=O)[C@H](CCCCN)NC(=O)[C@@H](Cc2c[nH]c3ccccc23)NC(=O)[C@@H](Cc2c[nH]c3ccccc23)NC1=O [Cyclo[AspTyrDTrpValDTrpDTrpLys], cyclo[AspTyrDTrpValDTrpDTrpLys]] (cyclo(DY[dW]V[dW][dW]K))
100	CC(C)[C@H](NC(=O)[C@@H](Cc1c[nH]c2ccccc12)NC(=O)[C@H](Cc1ccc(O)cc1)NC(=O)[C@@H](N)CC(=O)O)C(=O)N[C@H](Cc1c[nH]c2ccccc12)C(=O)N[C@H](Cc1c[nH]c2ccccc12)C(=O)N[C@@H](C)C(N)=O [H-Asp-Tyr-DTrp-Val-DTrp-DTrp-Ala-NH₂] (H-DY[dW]V[dW][dW]A-NH2)
100	CC(C)[C@H](NC(=O)[C@@H](Cc1c[nH]c2ccccc12)NC(=O)[C@H](Cc1ccc(O)cc1)NC(=O)[C@@H](N)CC(=O)O)C(=O)N[C@H](Cc1c[nH]c2ccccc12)C(=O)N[C@H](Cc1c[nH]c2ccccc12)C(=O)N[C@@H](CCC(=O)O)C(N)=O [H-Asp-Tyr-DTrp-Val-DTrp-DTrp-Glu-NH₂] (H-DY[dW]V[dW][dW]E-NH2)
100	CC(C)[C@H](NC(=O)[C@@H](Cc1c[nH]c2ccccc12)NC(=O)[C@H](Cc1ccc(O)cc1)NC(=O)[C@@H](N)CC(=O)O)C(=O)N[C@H](Cc1c[nH]c2ccccc12)C(=O)N[C@H](Cc1c[nH]c2ccccc12)C(=O)NCC(N)=O [H-Asp-Tyr-DTrp-Val-DTrp-DTrp-Gly-NH₂] (H-DY[dW]V[dW][dW]G-NH2)
100	CC(C)C[C@H](NC(=O)[C@@H](Cc1c[nH]c2ccccc12)NC(=O)[C@@H](Cc1c[nH]c2ccccc12)NC(=O)[C@@H](NC(=O)[C@@H](Cc1c[nH]c2ccccc12)NC(=O)[C@H](Cc1ccc(O)cc1)NC(=O)[C@@H](N)CC(=O)O)C(C)C)C(N)=O [H-Asp-Tyr-DTrp-Val-DTrp-DTrp-Leu-NH₂] (H-DY[dW]V[dW][dW]L-NH2)
100	CC(C)[C@H](NC(=O)[C@@H](Cc1c[nH]c2ccccc12)NC(=O)[C@H](Cc1ccc(O)cc1)NC(=O)[C@@H](N)CC(=O)O)C(=O)N[C@H](Cc1c[nH]c2ccccc12)C(=O)N[C@H](Cc1c[nH]c2ccccc12)C(=O)N[C@@H](CCCCN)C(N)=O [H-Asp-Tyr-DTrp-Val-DTrp-DTrp-Lys-NH₂] (H-DY[dW]V[dW][dW]K-NH2)
100	CCCC[C@H](NC(=O)[C@@H](Cc1c[nH]c2ccccc12)NC(=O)[C@@H](Cc1c[nH]c2ccccc12)NC(=O)[C@@H](NC(=O)[C@@H](Cc1c[nH]c2ccccc12)NC(=O)[C@H](Cc1ccc(O)cc1)NC(=O)[C@@H](N)CC(=O)O)C(C)C)C(N)=O [H-Asp-Tyr-DTrp-Val-DTrp-DTrp-Nle-NH₂] (H-DY[dW]V[dW][dW][Nle]-NH2)
100	CC(C)[C@H](NC(=O)[C@@H](Cc1c[nH]c2ccccc12)NC(=O)[C@H](Cc1ccc(O)cc1)NC(=O)[C@@H](N)CC(=O)O)C(=O)N[C@H](Cc1c[nH]c2ccccc12)C(=O)N[C@H](Cc1c[nH]c2ccccc12)C(=O)N[C@@H](CCCN)C(N)=O [H-Asp-Tyr-DTrp-Val-DTrp-DTrp-Orn-NH₂] (H-DY[dW]V[dW][dW][Orn]-NH2)
